From PubChem BioAssay (NCI)
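Results reflect a 48-hour exposure of cells in 96-well plates to compound at five concentrations. The concentration for full growth arrest is given as TGI.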

Columns and labels:
Assay in all cases: NCI anticancer screen, dose series, 48 h
[1] = tested on: OVCAR-8 ovarian
[2] = tested on: HCT-116 colon
[3] = tested on: MDA-N
[4] = tested on: SK-MEL-28 melanoma
[5] = tested on: EKVX NSCLC
[6] = tested on: A549 NSCLC
[7] = tested on: RXF 393 renal
[8] = tested on: UACC-257 melanoma
[9] = tested on: MDA-MB-435
[10] = tested on: HL-60(TB) leukemia
[11] = tested on: IGROV1 ovarian
[12] = tested on: ACHN renal
[13] = tested on: K-562 leukemia
[14] = tested on: CCRF-CEM leukemia
[15] = tested on: UO-31 renal
[16] = tested on: NCI-H23 lung
[17] = tested on: NCI-H460 lung
[18] = tested on: NCI-H226 lung
[19] = tested on: A498 renal

CCN(CC)c1cc2c3c(c1)CCCN3CCC2
TGI [1]: > 10 µM | TGI [2]: > 10 µM | TGI [3]: > 10 µM | TGI [4]: > 10 µM | TGI [5]: > 10 µM | TGI [6]: > 10 µM | TGI [7]: > 10 µM | TGI [8]: > 10 µM | TGI [9]: > 10 µM | TGI [10]: > 10 µM | TGI [11]: > 10 µM | TGI [12]: > 10 µM | TGI [13]: > 10 µM | TGI [14]: > 10 µM | TGI [15]: > 10 µM | TGI [16]: > 10 µM | TGI [17]: > 10 µM | TGI [18]: > 10 µM | TGI [19]: > 10 µM

C=C(Cl)c1c(OC)cccc1OCc1ccccc1
TGI [1]: > 100 µM | TGI [2]: > 100 µM | TGI [3]: > 100 µM | TGI [4]: > 100 µM | TGI [5]: > 100 µM | TGI [6]: > 100 µM | TGI [7]: 51.9 µM | TGI [8]: 40.6 µM | TGI [9]: > 100 µM | TGI [10]: > 100 µM | TGI [11]: > 100 µM | TGI [12]: > 100 µM | TGI [13]: > 100 µM | TGI [14]: > 100 µM | TGI [15]: > 100 µM | TGI [16]: > 100 µM | TGI [17]: > 100 µM | TGI [18]: > 100 µM | TGI [19]: > 100 µM

COC(=O)C1=C(O)C(C(=O)OC)[C@]2(O)[C@H](C(=O)OC)[C@H]1C[C@@H](c1ccc(F)cc1)[C@H]2C(=O)OC (stereo partly specified)
TGI [1]: 86.8 µM | TGI [2]: 20.3 µM | TGI [3]: 17.1 µM | TGI [4]: 27.4 µM | TGI [5]: 41.3 µM | TGI [6]: > 100 µM | TGI [7]: 26.5 µM | TGI [8]: 41.9 µM | TGI [9]: 61 µM | TGI [10]: 7.24 µM | TGI [11]: 59.8 µM | TGI [12]: 43.5 µM | TGI [13]: > 100 µM | TGI [14]: 70.7 µM | TGI [15]: 29.1 µM | TGI [16]: 31 µM | TGI [17]: 63.1 µM | TGI [18]: 49.9 µM | TGI [19]: 35.1 µM

COc1ccc(Nc2nnc(CCCCCCCCc3nnc(Nc4ccc(OC)cc4)o3)o2)cc1
TGI [1]: > 100 µM | TGI [2]: > 100 µM | TGI [3]: > 100 µM | TGI [4]: > 100 µM | TGI [5]: > 100 µM | TGI [6]: > 100 µM | TGI [7]: > 100 µM | TGI [8]: > 100 µM | TGI [9]: > 100 µM | TGI [10]: > 100 µM | TGI [11]: > 100 µM | TGI [12]: > 100 µM | TGI [13]: > 100 µM | TGI [14]: > 100 µM | TGI [15]: > 100 µM | TGI [16]: > 100 µM | TGI [17]: > 100 µM | TGI [18]: > 100 µM | TGI [19]: > 100 µM

COC(=O)C(Cc1c[nH]c2ccccc12)N=C1Nc2ccncc2S(=O)(=O)N1c1ccccc1 (stereo unspecified)
TGI [1]: > 100 µM | TGI [2]: > 100 µM | TGI [3]: > 100 µM | TGI [4]: > 100 µM | TGI [5]: > 100 µM | TGI [6]: > 100 µM | TGI [7]: 56.8 µM | TGI [8]: > 100 µM | TGI [9]: 87.3 µM | TGI [10]: 0.727 µM | TGI [11]: 98.7 µM | TGI [12]: > 100 µM | TGI [13]: 51.8 µM | TGI [14]: 32.2 µM | TGI [15]: > 100 µM | TGI [16]: > 100 µM | TGI [17]: > 100 µM | TGI [18]: 61.4 µM | TGI [19]: > 100 µM

CC(C)=CCC[C@@H](C)C1=C(O)C(O)C(C)=C2N=C(c3ccccc3)C(=O)OC21 (stereo partly specified)
TGI [1]: > 11 µM | TGI [2]: > 8.46 µM | TGI [3]: > 25 µM | TGI [4]: > 25 µM | TGI [5]: > 25 µM | TGI [6]: > 23 µM | TGI [7]: > 17.1 µM | TGI [8]: > 25 µM | TGI [9]: > 25 µM | TGI [10]: 1.63 µM | TGI [11]: > 25 µM | TGI [12]: > 13.7 µM | TGI [13]: > 25 µM | TGI [14]: > 5.47 µM | TGI [15]: 14.6 µM | TGI [16]: 6.15 µM | TGI [17]: > 17 µM | TGI [18]: 6.94 µM | TGI [19]: > 13.1 µM

CN1C2CCC1CC(CCOC(c1ccc(F)cc1)c1ccc(F)cc1)C2 (stereo unspecified)
TGI [1]: 32.1 µM | TGI [2]: 27.4 µM | TGI [3]: 37.5 µM | TGI [4]: 31.7 µM | TGI [5]: 27.7 µM | TGI [6]: 35.7 µM | TGI [7]: 22.6 µM | TGI [8]: 34.1 µM | TGI [9]: 25.7 µM | TGI [10]: 34.9 µM | TGI [11]: 32.1 µM | TGI [12]: 30.8 µM | TGI [13]: 35.8 µM | TGI [14]: 46.1 µM | TGI [15]: 27.9 µM | TGI [16]: 42.1 µM | TGI [17]: 32.2 µM | TGI [18]: 29.1 µM | TGI [19]: 36.1 µM

CC(=O)C(I(OS(=O)(=O)c1ccc(C)cc1)c1ccccc1)=P(c1ccccc1)(c1ccccc1)c1ccccc1
TGI [1]: > 100 µM | TGI [2]: 50.2 µM | TGI [3]: 33.2 µM | TGI [4]: 36.4 µM | TGI [5]: 70.8 µM | TGI [6]: 72.8 µM | TGI [7]: > 100 µM | TGI [8]: 59 µM | TGI [9]: 32.4 µM | TGI [10]: 76.3 µM | TGI [11]: 73.5 µM | TGI [12]: > 100 µM | TGI [13]: > 100 µM | TGI [14]: 78.3 µM | TGI [15]: > 100 µM | TGI [16]: 42.7 µM | TGI [17]: > 100 µM | TGI [18]: 38.8 µM | TGI [19]: > 100 µM

CSc1nc(C)c2c(n1)SCC2
TGI [1]: > 10 µM | TGI [2]: > 10 µM | TGI [3]: > 10 µM | TGI [4]: > 10 µM | TGI [5]: > 10 µM | TGI [6]: > 10 µM | TGI [7]: > 10 µM | TGI [8]: > 10 µM | TGI [9]: > 10 µM | TGI [10]: > 10 µM | TGI [11]: > 10 µM | TGI [12]: > 10 µM | TGI [13]: > 10 µM | TGI [14]: > 10 µM | TGI [15]: > 10 µM | TGI [16]: > 10 µM | TGI [17]: > 10 µM | TGI [18]: > 10 µM | TGI [19]: > 10 µM
